Data from PMC6243185 (The Korean Journal of Parasitology, 2018).

Biological target: T1, AcCP (rAcCP) (Acanthamoeba castellanii, UniProt A1YJR6)
T1 sequence (A1YJR6 44-330): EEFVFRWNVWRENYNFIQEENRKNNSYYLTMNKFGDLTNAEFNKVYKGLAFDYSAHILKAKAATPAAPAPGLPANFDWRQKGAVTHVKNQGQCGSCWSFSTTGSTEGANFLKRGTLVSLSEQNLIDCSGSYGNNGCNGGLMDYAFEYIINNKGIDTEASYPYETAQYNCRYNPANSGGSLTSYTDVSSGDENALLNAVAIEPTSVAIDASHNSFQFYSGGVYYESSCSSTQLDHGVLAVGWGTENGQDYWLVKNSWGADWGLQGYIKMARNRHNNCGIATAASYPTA
Assay: inhibition of fluorogenic substrate hydrolysis
Format: biochemical
Conditions: fully processed rAcCP; data not shown; covalent

CC(C)C[C@H](NC(=O)[C@H]1O[C@@H]1C(=O)O)C(=O)NCCCCN=C(N)N [E-64, trans-epoxy-succinyl-L-leucylamido(4-guanidino)-butane]
inhibition of fluorogenic substrate hydrolysis; active site titration: The fully processed rAcCP was effectively inhibited by a cysteine protease inhibitor, E-64 (data not shown)
